Experimental data reported in PubChem BioAssay (NCI).
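Compound exposure: 48 hours, 5 concentrations, 96-well plates. TGI marks complete inhibition of growth.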

Legend:
Experiment in all cases: NCI-60 cell line screen, 48 h
[1] = system: UACC-62 melanoma
[2] = system: OVCAR-3 ovarian
[3] = system: HS 578T breast
[4] = system: ACHN renal
[5] = system: MOLT-4 leukemia
[6] = system: HCT-116 colon
[7] = system: U251 CNS
[8] = system: MALME-3M melanoma
[9] = system: HT29 colon
[10] = system: A549 NSCLC
[11] = system: COLO 205 colon
[12] = system: NCI-H460 lung
[13] = system: MDA-N
[14] = system: K-562 leukemia
[15] = system: IGROV1 ovarian
[16] = system: NCI-H23 lung
[17] = system: UACC-257 melanoma

Compound	TGI [1] [µM]	TGI [2] [µM]	TGI [3] [µM]	TGI [4] [µM]	TGI [5] [µM]	TGI [6] [µM]	TGI [7] [µM]	TGI [8] [µM]	TGI [9] [µM]	TGI [10] [µM]	TGI [11] [µM]	TGI [12] [µM]	TGI [13] [µM]	TGI [14] [µM]	TGI [15] [µM]	TGI [16] [µM]	TGI [17] [µM]
CC(=O)Nc1ccc2c3c(cc(O)c2c1)N(C(=O)CCCC(=O)Nc1ccc2c4c(cc(O)c2c1)N(C(=O)OC(C)(C)C)CC4CCl)CC3CCl (stereo not given)	2.31	2.89	> 12.1	31.2	0.912	> 50	4.38	2.75	> 13.1	> 50	6.05	21.5	3.34	> 31.4	> 50	16.7	3.34
CC(=O)OCc1cccc(O)c1C(=O)CCC=C(C)C	> 100	> 100	> 100	> 100	> 100	> 100	> 100	> 100	> 100	> 100	> 100	> 100	> 100	> 100	> 100	> 100	> 100
CC1(C)N(OC2CCCCO2)C(c2ccccc2)C(c2ccccc2)=[N+]1[O-] (stereo not given)	> 100	> 100	> 100	> 100	> 100	> 100	> 100	> 100	> 100	> 100	> 100	> 100	> 100	> 100	> 100	> 100	> 100
CN(C)C(=S)N/N=C\C(=N/NC(=S)N(C)C)c1ccccc1	> 100	> 23.4	> 29.9	> 100	> 100	> 46.5	> 100	> 57.5	> 100	> 100	> 100	> 100	> 100	> 100	> 48.2	> 45.4	> 100
CC(C)(C)[Si](C)(C)OCC1OC(n2cc(F)c(=O)[nH]c2=O)CC1O[Si](C)(C)C(C)(C)C (stereo not given)	15.7	32.5	26.4	21.8	22	19.8	22.5	31.2	> 100	25.6	19.5	15.7	18.4	16	19.7	19.6	15.9
CC(C)=CCC[C@](C)(O)[C@H]1CC[C@]2(C)[C@@H]1[C@H](O)C[C@@H]1[C@@]3(C)CC[C@H](O[C@@H]4O[C@H](CO)[C@@H](O)[C@H](O)[C@H]4O)C(C)(C)[C@@H]3CC[C@]12C	31	32	47	32.9	34.8	41.2	35.2	34.6	32.5	37.7	37.3	30.2	36.3	38.1	29.8	38	41.1
COc1ccc(OC)c(C2CCCc3c2cnc2nc(N)nc(N)c32)c1 (stereo not given)	> 100	> 100	> 100	> 100	> 100	> 100	> 100	> 100	> 100	> 100	> 100	> 100	> 100	> 100	> 100	> 100	> 100
CC1(C)CC(=O)C(CC(C(=O)C(=O)Nc2cc(C(F)(F)F)ccc2Cl)C(=O)c2ccco2)C(=O)C1 (stereo not given)	> 100	> 100	> 100	> 100	> 100	> 100	> 100	> 100	> 100	> 100	> 100	> 100	> 100	> 100	> 100	> 100	> 100
O=C(CC(=O)N(C(=O)c1ccccc1)c1ccc(Cl)cc1)N/N=C\c1ccccc1O	–	> 100	81.3	> 100	> 100	> 100	> 100	> 100	> 100	> 100	> 100	> 100	> 100	> 100	> 100	> 100	> 100
OCCOCCN1CCN(c2nc(N3CCCC3)c3nc(Cl)c(NCc4ccccc4)nc3n2)CC1	27.3	29.2	43.5	27.2	27.8	26.4	25.5	29.9	13.7	28.4	21.7	24.7	22.7	16.4	33.9	31.4	27.4
Oc1ccc2ccccc2c1-c1c(Nc2ccccc2)ccc2ccccc12	33.6	22.7	41.1	38.8	46.4	33.5	52	25	> 53.5	38.9	38	39.9	20.5	41	18.7	30	40.3
O=C(O)CN1CCNCCN(CC(=O)O)CCNCC1	> 100	> 100	> 100	> 100	> 100	> 100	> 100	> 100	> 100	> 100	> 36.4	> 50.5	> 31.6	> 100	> 100	> 100	> 100
CC(Oc1ccccc1)C(=O)NN (stereo not given)	> 100	> 100	> 100	> 100	> 100	> 100	> 100	> 100	> 100	> 100	> 100	> 100	> 100	> 100	> 100	> 100	> 100
